# Patent publication US10028992B2, “Methods of treating muscular dystrophy” (BOARD OF REGENTS OF THE NEVADA SYSTEM OF HIGHER EDUCATION …, priority 2012, dated 2018)
# Read-outs that look alike come from different tables or passages of the source.
# Test system: α7 integrin promoter
# Experiment: muscle cell-based assay: α7βgal+/− myoblasts/myotubes, LacZ reporter, β-galactosidase cleavage of FDG
# Set-up: species or system mouse
# Experimental: An α7 integrin null mouse was produced in which exon 1 of the gene encoding the α7 integrin was replaced by the LacZ reporter. In these mice, all the transcriptional regulatory elements of the α7 integrin promoter were retained, allowing β-galactosidase to report expression of 7 integrin. A primary myoblast cell line (designated α7βgal^+/−) isolated from 10 day old α7^+/− pups were analyzed for the ability of β-galactosidase to report α7 integrin expression. α7βgal^+/− myoblasts were differentiated and subjected to X-gal staining and western analysis (FIGS. 1A and 1B).
# The activity of the α7 integrin promoter was measured by β-galactosidase cleavage of the non-fluorescent compound fluorescein di-β-D-galactopyranoside (FDG) to fluorescein. This assay was used to screen compound libraries to identify molecules that up-regulate α7 integrin expression in muscle.
# Also evaluated was the effect of various isoforms of laminin and the ligand for α7β1 integrin on integrin expression. Positive hits were subjected to dose-response analysis, western analysis and a myostatin counterscreen (a negative regulator of muscle growth).
# [1] = Mus musculus; Table 12; log of AC50, given with negative sign; unit of AC50 not given; read-out: Fit Log AC50 (converted)
# [2] = Mus musculus; read-out: Max Response [%]
# [3] = Table 12; fitted activity at zero concentration
# [4] = Table 12 Compound data; concentration-response curve fit
SMILES,AC50 [1],Emax [2],Fit HillSlope (Table 12; curve fit),Fit Zero Activity [%] [3],Fit Curve Class (Table 12; key not given),Score [4],Curve Description,Fit Curve Class,Fit HillSlope,Fit Zero Activity [%],Score,"AC50 (Mus musculus, read-out: Fit Log AC50 (converted))","Emax (Mus musculus, read-out: Max Response [%])",Activity at 0.307 μM [%] ** (0.307 μM)
Cc1ccc(C2Nc3cccc4cccc(c34)N2)s1 [Compound 24],3160 nM,81.3%,2.1211,5.7274%,1.1,84,–,–,–,–,–,–,–,–
COc1cc(=O)n(C)c2ccccc12 [Compound 25],2240 nM,63%,1.6604,−18.7854%,1.1,84,–,–,–,–,–,–,–,–
CCOC(=O)c1sc(=N)n(-c2ccc(OC)cc2)c1C [Compound 26],2000 nM,56.1%,1.1,−36.1807%,1.1,84,–,–,–,–,–,–,–,–
Cc1ccc(OCC(=O)N2CCN(S(=O)(=O)c3ccc4c(c3)OCCO4)CC2)c(C)c1 [Compound 27],2000 nM,53.8%,2.2526,−26.8995%,1.1,83,–,–,–,–,–,–,–,–
CC(NC(=O)c1cn(C)c2ccc(S(=O)(=O)N3CCCC3)cc2c1=O)c1ccccc1 (centres unmarked) [Compound 28],2820 nM,54.7%,2.5334,−36.6914%,1.1,83,–,–,–,–,–,–,–,–
Cc1cc(NC(=O)CCC(=O)N(Cc2cccnc2)C(C(=O)NC(C)(C)C)c2ccccc2Cl)no1 (centres unmarked) [Compound 29],3980 nM,54.9%,1.7885,−25.4387%,1.1,83,–,–,–,–,–,–,–,–
COc1cc(/C=C2/C(=N)N3C(SC)=NSC3=NC2=O)ccc1OC(=O)c1ccco1 [Compound 30],3980 nM,73.4%,2.1876,−19.157%,1.1,83,–,–,–,–,–,–,–,–
COc1ccccc1CNc1cc(C)ccn1 [Compound 31],2510 nM,62.3%,1.9673,−24.2621%,1.1,83,–,–,–,–,–,–,–,–
Cc1nn(C(C)(C)C)c(C)c1/C=N/OC(=O)Nc1ccc(Cl)c(Cl)c1 [Compound 32],–,–,–,–,–,–,Complete,1.1,2.1211,−28.5623%,83,2820 nM,59.8%,–
CCOC(=O)C1CCCN(C(=O)CNS(=O)(=O)c2ccc(Br)s2)C1 (centres unmarked) [Compound 33],2000 nM,31.1%,1.1,−50.1655%,1.1,82,–,–,–,–,–,–,–,–
CCCCNC(=O)CSc1nnc(Cc2ccc(Cl)c(Cl)c2)c(O)n1 [Compound 34],1410 nM,75.4%,1.8851,5.9015%,1.2,65,–,–,–,–,–,–,–,–
O=Cc1ccc(C(=O)OCC(=O)N2CCCC2)cc1 [Compound 35],2510 nM,71.8%,3.132,−0.1751%,1.2,64,–,–,–,–,–,–,–,0%
CC(C)/N=C(\S)NN=C1CCCCCCCCCCC1 [Compound 36],3160 nM,78.6%,1.4163,5.5%,1.2,64,–,–,–,–,–,–,–,–
COc1ccc(S(=O)(=O)N(NC2=NS(=O)(=O)c3ccccc32)C(=O)C(C)C)cc1 [Compound 37],2510 nM,72.9%,2.4064,−2.5935%,1.2,64,–,–,–,–,–,–,–,–
C/C(CC(=O)Nc1ccc(Cl)c(C(F)(F)F)c1)=N\NC(=O)c1cnccn1 [Compound 38],4470 nM,72.7%,4.9549,−2.0156%,1.2,63,–,–,–,–,–,–,–,–
